From patent publication US20050250737A1, “Therapeutic ophthalmic compositions containing retinal friendly excipients and related methods” (Allergan, Inc., priority 2003, published 2005)
“Also recorded” adds a separate entry of the source.

Key:
ARPE-19 cells [1] = assay: in vitro; conditions: for Reduction of cell survival: 0.1% (w/v), 24, 48 and 72 hour time points
Source text: Cell viability and cell morphology were examined to evaluate the toxicity of excipients on retinal pigment epithelial cells. The human retina cell line used in these experiments is the ARPE-19 cell line (human adult-derived retinal pigmented epithelial cells). […] They form tight-junctions with transepithelial resistance of monolayers (Dunn K C et al., supra). From a molecular standpoint, it appears that ARPE-19 express a huge pattern of genes similar to those expressed by human RPE from fresh explant which could account for their physiological function (Klimanskaya I. et al., “Derivation and comparative assessment of retinal pigment epithelium from human embryonic stem cells using transcriptomics”, Cloning and Stem Cells, 2004, 6(3):217-45).
ARPE-19 cells are widely used as a retinal model that resemble physiological properties of RPE cells. Similar methods of culturing ARPE-19 cells and cytotoxicity assays can be found in Yeung et al., “Cytotoxicity of triamcinolone on cultured human retinal pigment epithelial cells: comparison with dexamethasone and hydrocortisone”, Jpn J. Ophthalmol, 2004; 48:236-242. Cell viability and cell morphology were examined using conventional colormetric and visual methods. Viability and morphology measurements were obtained at 24 hours, 48 hours, and 72 hours after exposure to an excipient composition.
To assess cell viability, mitochondrial metabolism was quantified through conventional colorometric assays (i.e., the MTT assay). This calorimetric assay utilizes 3-(4,5-dimethylthiazol-2-yl)-2,5-diphenyltetrazolium bromide (MTT) and correlates mitochondrial metabolism and cell viability through measurement of dehydrogenase activity which converts a substrate into crystal. More specifically, the assay measures the activity of living cells through mitochondrial dehydrogenases. When dissolved in culture cell medium, MTT solution appears dark orange. Mitochondrial dehydrogenases of viable cells degrade MTT by cleaving the tetrazolium ring yielding to formation of a purple formazan crystal, which is insoluble in water. Crystals are subsequently dissolved in isopropanol solution. A resulting purple solution is spectrophotometrically measured. Cell viability is relative to amount of formazan and calculated as a percentage of remaining treated compared to non-treated cells.
Results from the MTT assay were expressed as a percentage of cell viability calculated using the following equation: % cell viability=ODtest/ODcontrol×100.
For each experiment, one concentration was performed in triplicate. Each point was spectrophotometrically read twice. Average of readings was calculated, then average from these 3 values was determined.
After 3 experiments were independently completed under the same conditions, a graph was plotted with cell viability expressed as a function of concentration (dose response) and for various incubation period (time course). The IC50 was then estimated based on the graphed data.
More specifically, cell density in 24-multiwell plates was observed on the day of the experiment to check if confluence of the cells was reached. Aliquots of MTT concentrated solutions were removed from a freezer at −20° C. and thawed at room temperature. Cell medium was warmed at 37° C. before use. Appropriated tubes for diluting compounds were prepared. Higher concentrations of each excipient agent was prepared. Serial dilution was then performed in cell medium (DMEM:F12+10% FBS).
Cell culture medium in the 24-well plate was removed using vacuum-pump. Cells were then stimulated with 0.5 ml final volume for each concentration of one given excipient agent. Distribution of the excipient-containing solution was performed using automated pipet-aid in sterile environment (under PSM) or not depending on time of compounds and duration of incubation.
After stimulation, cells were replaced in a CO2 incubator for the required time of exposure.

ARPE-19 cells [2] = type: cell-based
Procedure: Cell morphology was visualized using light microscopy. Cell morphology observation using light microscopy permits determination of (i) cell number and density and (ii) whether or not cells in contact with an excipient agent display modified phenotype compared to a non-treated population of cells.
Cell morphology was analyzed in parallel by semi-quantitative scoring ranging from 5 to 1, from basal to lethal phenotype respectively, as shown in FIG. 23.
More specifically, cells were removed from an incubator for examination. Morphological shape of cells was visualized using a light microscope and CCD camera. Every 3 wells of a given concentration was observed through image analysis software. Then, a representative photograph describing the average appearance of cells was saved. The supernatant was either, kept for further predefined experiments to perform, or removed using vacuum-pump.
Resulting semi-quantitative scoring is represented as a function of time course and dose response. Score 5 : wild type phenotype of non-treated cells, 100% confluent adherent cells. This phenotype very much vary following post-seeding time. For example, at confluence ARPE-19 cells at 1 day appear well defined with visible outer membrane and dark grey cytoplasm. After 3 days of confluence, limits between cells become less visible and cells adopt a more hexagonal shape and constitute an epithelium-like uniform dense structure. Score 4: density <100%. Cell shape has changed, some spaces are present between cells, few cells possibly detached. Score 3: 80% <Cell density <40%. Spaces are sometimes present among cells, areas appears confluent while in others, cells detached. General cell shape starts showing non negligible alterations. Score 2: Cell density <50%. Cells adopt exclusively stressed appearance, presence of mass dead floating cells. Score 1: Cell density <10%. Presence of almost exclusively dead cells.
Based on quotation, each condition of the applied compound was given a score which allow to a morphology evolution profile to be prepared, ie. cell morphology as a function of compound concentration and time of exposure. […]

[3] = pH of excipient-containing incubating solutions; type: physicochemical
Procedure: (§1) For each concentration of tested compound, pH and osmolarity parameters were measured.

[4] = Osmolarity of excipient-containing incubating solutions; type: physicochemical
Procedure: Osmolarity was measured using osmometer type 13/13DR from Roebling (Berlin, GR).
as §1

| Substance | Decrease of cell viability (ARPE-19 cells [1]) | Reduction of cell survival (ARPE-19 cells [1]) | pH of excipient dilution ([3]; 0.1% in culture medium) | pH of excipient dilution ([3]; 0.5% in culture medium) | pH of excipient dilution ([3]; 1% in culture medium) | pH of excipient dilution ([3]; 5% in culture medium) | pH of excipient dilution ([3]; 10% in culture medium) | pH of excipient dilution ([3]; 20% in culture medium) | Osmolarity of excipient dilution ([4]; 0.1% in culture medium) | Osmolarity of excipient dilution ([4]; 0.5% in culture medium) | Osmolarity of excipient dilution ([4]; 1% in culture medium) | Osmolarity of excipient dilution ([4]; 5% in culture medium) | Osmolarity of excipient dilution ([4]; 10% in culture medium) | also measured |
| --- | --- | --- | --- | --- | --- | --- | --- | --- | --- | --- | --- | --- | --- | --- |
| hydroxypropyl beta-cyclodextrin [Kleptose®] | about 40% | 20-30% | 7.6 | 7.6 | 7.5 | 7.5 | 7.5 | 7.6 | 309 mOsm | 317 mOsm | 325 mOsm | 375 mOsm | 459 mOsm | Cell survival (% of the initial value) (ARPE-19 cells [1]; 1% (w/v)): about 70%; Cell survival (ARPE-19 cells [1]; 5% (w/v), 24 h): complete disappearance of living cells; also recorded: about 20%; IC50 (50% cell viability inhibition, MTT) (ARPE-19 cells [1]; ARPE-19, all incubation times 24-72 h, estimated from graph): about 2.2%; MTT IC50 (%) (ARPE-19 cells [1]; ARPE-19 cells, summary Table 3): 2.2-2.5%; Morphology limit concentration (%) (ARPE-19 cells [2]): 2.6-3%; Osmolarity of excipient dilution ([4]; 20% in culture medium): 635 mOsm |
| hydroxypropyl gamma-cyclodextrin [Cavasol] | – | ≤ 10% | 7.6 | 7.6 | 7.6 | 7.6 | 7.6 | 7.6 | – | – | – | – | – | Effect on both cell parameters (viability, morphology) (ARPE-19 cells [1]): no measurable effect on both cell parameters; Viable cells (ARPE-19 cells [1]): approximately 80%; Percentage of living cells (ARPE-19 cells [1]; 0.05 to 10%, after recovery (later than 24 h)): > 80%; Cell survival (% of the initial value) (ARPE-19 cells [1]; 10% (w/v)): about 80%; IC50 (cell viability), statement in words (ARPE-19 cells [1]; at the tested concentrations and incubation times): not possible to determine the IC50 |
| hydroxypropylmethyl cellulose [HPMC] | 20-40% | – | – | – | – | – | – | – | – | – | – | – | – | Cell viability, experiment 3 (ARPE-19 cells [1]): 77.4% |
| sulfobutyl ether 4 beta-cyclodextrin [Captisol] | – | 10-20% | 7.6 | 7.6 | 7.6 | 7.6 | 7.7 | 7.7 | 310 mOsm | 318 mOsm | 333 mOsm | 408 mOsm | 518 mOsm | Cell survival (% of the initial value) (ARPE-19 cells [1]; 5% (w/v)): 70-80%; Cell survival (ARPE-19 cells [1]; 10% (w/v), 24 hour time point): 50-60%; Osmolarity of excipient dilution ([4]; 20% in culture medium, listed as Sulfobutylether 4 beta-CD): far exceeds physiological osmolarity range; Osmolarity of excipient dilution ([4]; 20% in culture medium, listed as Sulfobutylether 4beta-CD): 710 mOsm |
